In US20110203018A1, “Use of Carboxamides on Cultivated Plants” (BASF SE, priority 2008, published 2011):

What was measured:
[1] = system: Asian Soybean Rust (Phakopsora pachyrhizi); assay: Field trial: efficacy against Asian Soybean Rust in soybeans (infected leaf area); conditions: for Efficacy against soybean rust (%): soybeans, field, EC, assessed 20 days after last treatment, infection in Control 95% infected leaf area
soybeans = assay: Field trial: soybean grain yield and thousand grain weight (TGW); assay type: in vivo; conditions: for Grain Yield (dt/ha) / TGW: soybeans, field, EC; for Grain Yield (dt/ha): Control 16.6; for TGW: Control 113.9
maize [2] = assay: Field trial: green leaf retention in maize (green leaf area); assay type: in vivo
Text: The variety DKB 390 was planted at a seeding rate of 60,000 plants per ha. Row spacing was 80 cm. Plot size was 30 m^2. […] Green leaf retention was estimated in treated and control plants by estimating the green leaf area 28 days after treatment in 10 randomly chosen plants per plot.

Rhizoctonia solani = assay: Field trial: efficacy against Rhizoctonia solani in rice (infected leaf area, frequency of infection); assay type: in vivo
Procedure: Imidazolinone tolerant rice ([…]) was grown in 2008 at Washington, 7033 Highway 103, LA, USA. […] Row spacing was 18 cm. Plot size was 27.5 m^2. […] Infection with Rhizoctonia solani 77 days after treatment with COMPOUND 2 was assessed (Tab. 3) by estimating the infected leaf area and frequency of infection in 10 randomly chosen plants per plot.

[3] = system: common rust (Puccinia sorghi); assay: Field trial: efficacy against common rust in maize (infected leaf area); assay type: in vivo
Text: The variety DKB 390 was planted at a seeding rate of 60,000 plants per ha. Row spacing was 80 cm. Plot size was 30 m^2.

maize [4] = assay: Field trial: maize grain yield and thousand grain weight (TGW); assay type: in vivo
Procedure: The variety DKB 390 was planted at a seeding rate of 60,000 plants per ha. Row spacing was 80 cm. Plot size was 30 m^2. […] At maturity, the plants were harvested and the grain yield and thousand grain weight (TGW) were measured (Tab. 2).

rice = assay: Field trial: rice grain yield; assay type: in vivo
Procedure: Imidazolinone tolerant rice ([…]) was grown in 2008 at Washington, 7033 Highway 103, LA, USA. […] Row spacing was 18 cm. Plot size was 27.5 m^2. […] At maturity, the plants were harvested and the grain yield was measured (Tab. 3).

oilseed rape = assay: Field trial: oilseed rape grain yield; assay type: in vivo
Procedure: Oilseed rape was grown in 2002 at the Verde in France. The variety Colosse was planted at a seeding rate of 3 kg/ha. Row spacing was 17 cm. Plot size was 30 m^2. […] The formulation was diluted in a total spray volume of 300 l/ha.
At maturity, the plants were harvested and the grain yield was measured (Tab. 4).

Leptosphaeria maculans = assay: Field trial: Leptosphaeria maculans in oilseed rape (stem scoring, disease index); assay type: in vivo
[5] = 30 g AI/ha applied twice (BBCH 55/61 and 65/71)
[6] = 50 g AI/ha applied twice (application time BBCH 19)
[7] = herbicide tolerant oilseed rape variety

SMILES: Cn1cc(C(=O)Nc2ccccc2-c2cc(F)c(F)c(F)c2)c(C(F)F)n1 [COMPOUND 2, N-(3′,4′,5′-trifluorobiphenyl-2-yl)-3-difluoromethyl-1-methyl-1H-pyrazole-4-carboxamide]
- activity against Asian Soybean Rust ([1]; soybean field trial, EC 62.5 g/l, 0.48 l/ha and 0.8 l/ha, applied twice, 20 days after last treatment): good activity
- Efficacy against soybean rust (%) [1, 5]: 34%
- Efficacy against soybean rust (%) [1, 6]: 46%
- activity against Asian Soybean Rust versus expected from single effects ([1]; transgenic glyphosate tolerant soybean variety): increased
- disease control, combination of treatment with transgenic variety ([1]; transgenic soybean variety): synergistic effects
- grain weight of harvested grain versus the untreated (soybeans; soybean field trial): increased
- grain yield compared to the untreated control (soybeans; soybean field trial): increase
- Grain Yield (dt/ha) (soybeans; [5]): 21.6 dt/ha
- TGW (soybeans; [5]): 143.5 g
- Grain Yield (dt/ha) (soybeans; [6]): 22.9 dt/ha
- TGW (soybeans; [6]): 144.1 g
- grain yield, combination of treatment with transgenic variety (soybeans; transgenic soybean variety): synergistic effects
- increase in grain yield and in grain weight versus expected from single effects (soybeans; transgenic soybean variety): much bigger
- Green Leaf Area (%) (maize [2]; maize DKB 390, field, 50 g/ha, EC, BBCH 51/55, 28 days after treatment, Control 34): 40%
- green leaf area compared to control plants (maize [2]; maize field trial, 28 days after treatment): increase
- increase in green leaf tissue versus expected from combination of effects (maize [2]; transgenic maize plants): bigger
- disease control, combination of treatment with Imidazolinone tolerance trait (Rhizoctonia solani; CL 161 rice): synergistic effects
- Efficacy against Rhizctonia (%) Frequency (Rhizoctonia solani; Imidazolinone tolerant rice CL 161, field, 50 g/ha, EC, BBCH 32/34, 77 days after treatment): 45.6%
- Efficacy against Rhizctonia (%) Infection (Rhizoctonia solani; Imidazolinone tolerant rice CL 161, field, 50 g/ha, EC, BBCH 32/34, 77 days after treatment, infection in Control 8% infected leaf area): 50%
- activity against Rhizoctonia compared with a variety without the herbicide tolerance trait (Rhizoctonia solani; Imidazolinone tolerant rice variety (CL 161)): higher
- activity against Rhizoctonia in rice (Rhizoctonia solani; rice field trial, EC 62.5 g/l, 0.8 l/ha, once, 77 days after treatment): active
- Efficacy against rust (%) ([3]; maize DKB 390, field, 50 g/ha, EC, BBCH 51/55, 28 days after treatment, infection in Control 8.8% infected leaf area): 88.6%
- activity against common rust in maize ([3]; maize field trial, EC 62.5 g/l, 0.8 l/ha, once, 28 days after treatment): good activity
- activity against common rust versus expected from single effects ([3]; transgenic glyphosate tolerant and/or insect resistant maize varieties): increased
- disease control, combination of treatment with transgenic variety ([3]; transgenic maize variety): synergistic effects
- Grain Yield (dt/ha) (maize [4]; maize DKB 390, field, 50 g/ha, EC, BBCH 51/55, Control 49.2): 55.2 dt/ha
- TGW (maize [4]; maize DKB 390, field, 50 g/ha, EC, BBCH 51/55, Control 325): 333 g
- grain weight of harvested grain over the untreated control (maize [4]; maize field trial): increased
- grain yield compared to the untreated control (maize [4]; maize field trial): increase
- grain yield, combination of treatment with transgenic variety (maize [4]; transgenic maize variety): synergistic effects
- increase in grain yield and in grain weight versus expected from single effects (maize [4]; transgenic maize variety): much bigger
- grain yield, combination of treatment with Imidazolinone tolerance trait (rice; CL 161 rice): synergistic effects
- increase in grain yield compared with a conventional variety (rice; Clearfield variety (CL 161)): bigger
- Grain Yield (dt/ha) (rice; Imidazolinone tolerant rice CL 161, field, 50 g/ha, EC, BBCH 32/34, Control 37.76): 54.28 dt/ha
- grain yield compared to the untreated control (rice; rice field trial): increase

SMILES: O=C(Nc1ccccc1-c1ccc(Cl)cc1)c1cccnc1Cl [BOSCALID, boscalid]
- grain yield, combination of treatment with herbicide tolerant variety (oilseed rape; [7]): synergistic effects
- increase in grain yield versus expected from single effects (oilseed rape; [7]): bigger
- Grain Yield (dt/ha) (oilseed rape; oilseed rape Colosse, field, 50 g/ha, WG (Cantus), BBCH 16, Control 33.9): 49.3 dt/ha
- grain yield compared to the untreated control (oilseed rape; oilseed rape field trial): increase
- activity against Leptosphaeria maculans versus expected from combination of effects (Leptosphaeria maculans; herbicide tolerant (imidazolinone resistance) oilseed rape variety): increased
- disease control, combination of treatment with herbicide tolerant variety (Leptosphaeria maculans; [7]): synergistic effects
- LEPTMA disease index (Leptosphaeria maculans; oilseed rape Colosse, field, 50 g/ha, WG (Cantus), BBCH 16, 209 days after treatment, Control 3.17, infection rate in Control 49%): 1.71
- activity against Leptosphaeria maculans in oilseed rape (Leptosphaeria maculans; oilseed rape field trial, Cantus WG 500 g/kg, 0.5 kg/ha, once, 209 days after treatment): good activity
